Measured values published in patent US20070128217A1 (priority 2003, published 2007).

How the values were obtained:
[1] = tested on: antibodies in sera from SARS patients (sera 1a, 1b, 2, 6, 37, 62, London, SARS-yellow, SARS-green); type: binding, human; design: Binding of serum 6 to linear peptides of protein X1 of SARS-CoV Urbani / Binding of serum 37 to linear peptides of protein X1 of SARS-CoV Urbani / Binding of serum 6 to looped/cyclic peptide (PEPSCAN-ELISA) / Binding of serum 37 to looped/cyclic peptide (PEPSCAN-ELISA) / Binding of serum 37 to looped/cyclic peptides of protein X1 of SARS-CoV Urbani / Binding of serum 6 to linear peptides of protein X2 / Binding of serum 37 to linear peptides of protein X2 / Binding of serum 37 to looped/cyclic peptides of protein X2 of SARS-CoV Urbani / Binding of serum 6 to linear peptides of protein M of SARS-CoV Urbani / Binding of serum 37 to linear peptides of protein M of SARS-CoV Urbani / Binding of serum 6 to looped/cyclic peptides of protein M of SARS-CoV Urbani / Binding of serum 37 to looped/cyclic peptides of protein M of SARS-CoV Urbani / Binding of serum 6 to linear peptides of protein X3 of SARS-CoV Urbani / Binding of serum 37 to linear peptides of protein X3 of SARS-CoV Urbani / Binding of serum 37 to looped/cyclic peptides of protein X3 of SARS-CoV Urbani / Binding of serum 6 to linear peptides of protein X4 of SARS-CoV Urbani / Binding of serum 37 to linear peptides of protein X4 of SARS-CoV Urbani / Binding of serum 37 to looped/cyclic peptides of protein X4 of SARS-CoV Urbani / Binding of serum 6 to linear peptides of protein X5 of SARS-CoV Urbani / Binding of serum 37 to linear peptides of protein X5 of SARS-CoV Urbani / Binding of serum 37 to looped/cyclic peptides of protein X5 of SARS-CoV Urbani / Binding of serum 6 to linear peptides of protein N of SARS-CoV Urbani / Binding of serum 37 to linear peptides of protein N of SARS-CoV Urbani / Binding of serum 6 to linear peptide (PEPSCAN-ELISA) / Binding of serum 1a to looped/cyclic peptides of protein N of SARS-CoV Urbani / Binding of serum 1b to looped/cyclic peptides of protein N of SARS-CoV Urbani / Binding of serum 2 to looped/cyclic peptides of protein N of SARS-CoV Urbani / Binding of serum 6 to looped/cyclic peptides of protein N of SARS-CoV Urbani / Binding of serum 37 to looped/cyclic peptides of protein N of SARS-CoV Urbani / Binding of serum 62 to looped/cyclic peptides of protein N of SARS-CoV Urbani / Binding of serum London to looped/cyclic peptides of protein N of SARS-CoV Urbani / Binding of serum SARS-green to looped/cyclic peptides of protein N of SARS-CoV Urbani: unit not given here
[2] = tested on: control sera (pooled serum of ten healthy LUMC hospital workers; commercial negative donor pooled serum from the Dutch bloodbank); type: binding, human; design: Binding of Control serum LUMC to linear peptides / Binding of Control serum Blood-bank to linear peptides / Binding of Control serum LUMC to looped peptides / Binding of Control Serum Blood-Bank to Looped peptides / Binding of Control serum LUMC to linear peptides of the protein M of SARS-CoV Urbani / Binding of Control serum Blood-bank to linear peptides of the protein M of SARS-CoV Urbani / Binding of Control serum LUMC to looped peptides of the protein M of SARS-CoV Urbani / Binding of Control Serum Blood-Bank to Looped peptides of the protein M of SARS-CoV Urbani: unit not given here
[3] = tested on: rabbit serum obtained by immunizing a rabbit with the SARS-CoV strain Frankfurt 1; type: binding; design: Binding of a rabbit serum to linear peptides / Binding of a rabbit serum to looped peptides / Rabbit serum linear peptides / Rabbit serum looped peptides / Binding of a rabbit serum to linear peptides of protein N of SARS-CoV Urbani (Rabbit serum linear peptides) / Binding of a rabbit serum to looped/cyclic peptides of protein N of SARS-CoV Urbani (Rabbit serum looped peptides): unit not given here

In the case of CDIKDLPKEITVATS, the “Binding of serum 1a to linear peptides of protein M of SARS-CoV Urbani” value [1] was 0.6, the “Binding of serum 1a to looped/cyclic peptides of protein M of SARS-CoV Urbani” value [1] was 0.6 and the “Binding of serum 1b to linear peptides of protein M of SARS-CoV Urbani” value [1] was 0.3. The “Binding of serum 1b to looped/cyclic peptides of protein M of SARS-CoV Urbani” value [1] was 0.3, the “Binding of serum 2 to linear peptides of protein M of SARS-CoV Urbani” value [1] was 0.3 and the “Binding of serum 2 to looped/cyclic peptides of protein M of SARS-CoV Urbani” value [1] was 0.6. The “Binding of serum 6 to linear peptides of protein M of SARS-CoV Urbani” value [1] was 0.3, the “Binding of serum 6 to looped/cyclic peptides of protein M of SARS-CoV Urbani” value [1] was 0.5 and the “Binding of serum 37 to linear peptides of protein M of SARS-CoV Urbani” value [1] was 0.5. The “Binding of serum 37 to looped/cyclic peptides of protein M of SARS-CoV Urbani” value [1] was 0.6, the “Binding of serum 62 to linear peptides of protein M of SARS-CoV Urbani” value [1] was 0.7 and the “Binding of serum 62 to looped/cyclic peptides of protein M of SARS-CoV Urbani” value [1] was 0.6. For the same sequence, the “Binding of serum London to linear peptides of protein M of SARS-CoV Urbani” value [1] was 0.3, the “Binding of serum London to looped/cyclic peptides of protein M of SARS-CoV Urbani” value [1] was 0.2 and the “Binding of serum SARS-green to linear peptides of protein M of SARS-CoV Urbani” value [1] was 0.2. The “Binding of serum SARS-green to looped/cyclic peptides of protein M of SARS-CoV Urbani” value [1] was 0.4, the “Binding of serum SARS-yellow to linear peptides of protein M of SARS-CoV Urbani” value [1] was 0.0 and the “Binding of serum SARS-yellow to looped/cyclic peptides of protein M of SARS-CoV Urbani” value [1] was 0.6. For the same sequence, the “Binding of Control Serum Blood-Bank to Looped peptides of the protein M of SARS-CoV Urbani” value [2] was 0.6, the “Binding of Control serum Blood-bank to linear peptides of the protein M of SARS-CoV Urbani” value [2] was 0.4 and the “Binding of Control serum LUMC to linear peptides of the protein M of SARS-CoV Urbani” value [2] was 0.2. The “Binding of Control serum LUMC to looped peptides of the protein M of SARS-CoV Urbani” value [2] was 0.7, the “Rabbit serum linear peptides” value [3] was 0.4 and the “Rabbit serum looped peptides” value [3] was 0.6.

In the case of TQSTALQELLIQQWI, the “Binding of serum 1a to linear peptides of protein X2” value [1] was 0.7, the “Binding of serum 1a to looped/cyclic peptides of protein X2 of SARS-CoV Urbani” value [1] was 0.6 and the “Binding of serum 1b to linear peptides of protein X2” value [1] was 0.6. For the same sequence, the “Binding of serum 1b to looped/cyclic peptides of protein X2 of SARS-CoV Urbani” value [1] was 0.5, the “Binding of serum 2 to linear peptides of protein X2” value [1] was 0.3 and the “Binding of serum 2 to looped/cyclic peptides of protein X2 of SARS-CoV Urbani” value [1] was 0.4. For the same sequence, the “Binding of serum 6 to linear peptides of protein X2” value [1] was 0.7, the “Binding of serum 6 to looped/cyclic peptides of protein X2 of SARS-CoV Urbani” value [1] was 0.2 and the “Binding of serum 37 to linear peptides of protein X2” value [1] was 0.6. For the same sequence, the “Binding of serum 37 to looped/cyclic peptides of protein X2 of SARS-CoV Urbani” value [1] was 0.6, the “Binding of serum 62 to linear peptides of protein X2” value [1] was 0.6 and the “Binding of serum 62 to looped/cyclic peptides of protein X2 of SARS-CoV Urbani” value [1] was 0.6. The “Binding of serum London to linear peptides of protein X2” value [1] was 0.7, the “Binding of serum London to looped/cyclic peptides of protein X2 of SARS-CoV Urbani” value [1] was 0.2 and the “Binding of serum SARS-green to linear peptides of protein X2” value [1] was 0.6. For the same sequence, the “Binding of serum SARS-green to looped/cyclic peptides of protein X2 of SARS-CoV Urbani” value [1] was 0.5, the “Binding of serum SARS-yellow to linear peptides of protein X2” value [1] was 0.7 and the “Binding of serum SARS-yellow to looped/cyclic peptides of protein X2 of SARS-CoV Urbani” value [1] was 0.5. For the same sequence, the “Binding of Control Serum Blood-Bank to Looped peptides” value [2] was 0.7, the “Binding of Control serum Blood-bank to linear peptides” value [2] was 0.8 and the “Binding of Control serum LUMC to linear peptides” value [2] was 0.6. The “Binding of Control serum LUMC to looped peptides” value [2] was 0.6, the “Binding of a rabbit serum to linear peptides” value [3] was 0.3 and the “Binding of a rabbit serum to looped peptides” value [3] was 0.4.

MSLYMAISPKFTTSL was tested, and the “Binding of serum 1a to linear peptides of protein X2” value [1] was 0.8, the “Binding of serum 1a to looped/cyclic peptides of protein X2 of SARS-CoV Urbani” value [1] was 0.7 and the “Binding of serum 1b to linear peptides of protein X2” value [1] was 0.7. For the same sequence, the “Binding of serum 1b to looped/cyclic peptides of protein X2 of SARS-CoV Urbani” value [1] was 0.6, the “Binding of serum 2 to linear peptides of protein X2” value [1] was 0.4 and the “Binding of serum 2 to looped/cyclic peptides of protein X2 of SARS-CoV Urbani” value [1] was 0.4. For the same sequence, the “Binding of serum 6 to linear peptides of protein X2” value [1] was 0.3, the “Binding of serum 6 to looped/cyclic peptides of protein X2 of SARS-CoV Urbani” value [1] was 0.5 and the “Binding of serum 37 to linear peptides of protein X2” value [1] was 0.6. For the same sequence, the “Binding of serum 37 to looped/cyclic peptides of protein X2 of SARS-CoV Urbani” value [1] was 0.5, the “Binding of serum 62 to linear peptides of protein X2” value [1] was 0.6 and the “Binding of serum 62 to looped/cyclic peptides of protein X2 of SARS-CoV Urbani” value [1] was 0.8. For the same sequence, the “Binding of serum London to linear peptides of protein X2” value [1] was 0.4, the “Binding of serum London to looped/cyclic peptides of protein X2 of SARS-CoV Urbani” value [1] was 0.4 and the “Binding of serum SARS-green to linear peptides of protein X2” value [1] was 0.5. For the same sequence, the “Binding of serum SARS-green to looped/cyclic peptides of protein X2 of SARS-CoV Urbani” value [1] was 0.3, the “Binding of serum SARS-yellow to linear peptides of protein X2” value [1] was 0.3 and the “Binding of serum SARS-yellow to looped/cyclic peptides of protein X2 of SARS-CoV Urbani” value [1] was 0.5. The “Binding of Control Serum Blood-Bank to Looped peptides” value [2] was 0.8, the “Binding of Control serum Blood-bank to linear peptides” value [2] was 0.7 and the “Binding of Control serum LUMC to linear peptides” value [2] was 0.6. For the same sequence, the “Binding of Control serum LUMC to looped peptides” value [2] was 0.9, the “Binding of a rabbit serum to linear peptides” value [3] was 0.3 and the “Binding of a rabbit serum to looped peptides” value [3] was 0.5.
